Experimental data reported in patent publication US10898504B2, “Substituted nucleoside analogues for use as PRMT5 inhibitors” (Janssen Pharmaceutica NV, priority 2016, dated 2021).
“And” between values parts separate entries of the source, which are not always exact repeats. Equal values may be shown once.

Tests used:
PRMT5-MEP50 enzyme = biological target: T1, PRMT5-MEP50 enzyme (Homo sapiens, UniProt O14744); experiment: In vitro assay (Assay 1): PRMT5-MEP50 high throughput mass spectrometer assay, inhibition of SAH formation; format: biochemical; details: individual measurements shown; for IC50: read-out: pIC50 Assay 1 (converted)
T1 construct: One virus expresses full length human PRMT5 with Flag-tag at N-terminus
T1 sequence (O14744 whole entry): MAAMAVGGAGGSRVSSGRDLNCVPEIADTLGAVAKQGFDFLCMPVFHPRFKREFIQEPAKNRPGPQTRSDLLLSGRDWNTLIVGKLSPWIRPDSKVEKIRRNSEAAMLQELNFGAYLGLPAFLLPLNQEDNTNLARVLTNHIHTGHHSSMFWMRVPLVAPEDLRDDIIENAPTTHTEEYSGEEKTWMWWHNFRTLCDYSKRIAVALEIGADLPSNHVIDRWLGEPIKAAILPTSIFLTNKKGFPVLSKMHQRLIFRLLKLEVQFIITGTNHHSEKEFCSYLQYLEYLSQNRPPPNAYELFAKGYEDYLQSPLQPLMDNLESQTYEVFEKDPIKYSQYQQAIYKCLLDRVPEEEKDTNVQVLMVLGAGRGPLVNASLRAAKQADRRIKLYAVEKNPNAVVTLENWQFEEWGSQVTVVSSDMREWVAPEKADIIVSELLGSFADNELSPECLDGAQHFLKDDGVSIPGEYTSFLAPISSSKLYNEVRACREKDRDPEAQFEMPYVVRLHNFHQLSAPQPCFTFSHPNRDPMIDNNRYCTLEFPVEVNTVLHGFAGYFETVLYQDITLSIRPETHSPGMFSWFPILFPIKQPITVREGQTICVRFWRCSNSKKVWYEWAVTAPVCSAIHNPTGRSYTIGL
T1 sequence (Q9BQA1 whole entry partner): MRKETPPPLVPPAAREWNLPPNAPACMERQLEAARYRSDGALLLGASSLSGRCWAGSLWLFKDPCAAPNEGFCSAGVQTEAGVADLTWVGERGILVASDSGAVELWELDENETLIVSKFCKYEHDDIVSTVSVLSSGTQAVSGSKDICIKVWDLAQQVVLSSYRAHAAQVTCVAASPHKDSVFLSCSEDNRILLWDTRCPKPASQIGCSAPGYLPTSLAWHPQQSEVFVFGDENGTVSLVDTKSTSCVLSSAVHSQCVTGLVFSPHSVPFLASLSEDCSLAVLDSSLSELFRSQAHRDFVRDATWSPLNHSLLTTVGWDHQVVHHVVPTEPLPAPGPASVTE
Procedure, shortened: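 Flag-PRMT5/His-MEP50 full-length human complex (Sf9-expressed), 10 nM, with 1 μM SAM and 0.3 μM histone H2A in 20 mM Tris-HCl pH 8.5, 50 mM NaCl, 5 mM MgCl2, 1 mM DTT; 60 min at 30 °C, quenched with 1% formic acid. SAH quantified by RapidFire MS; IC50 from 11-point 1:2 series fitted to four-parameter Hill equation.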

A549 cells = experiment: PD assay (Assay 2): inhibition of nuclear symmetric Arginine dimethylation (SYM10 immunohistochemistry) in A549 cells; format: cell-based; details: individual measurements shown; for IC50: Homo sapiens, A549, PD assay in A549 cells, read-out: pIC50 Assay 2 (converted)
Procedure, shortened: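 A549 cells dosed with a nine-point series (0.2% DMSO) for 48 h at 37° C, then fixed and immunostained with SYM10 anti-symmetric-dimethylarginine antibody, plus Hoechst and CellMask counterstains for high-content imaging. Nuclear signal normalized between DMSO and 10 μM reference-compound controls to derive IC50/pIC50.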

SMILES | IC50 (PRMT5-MEP50 enzyme) | IC50 (A549 cells) | pIC50 Assay 2 (A549 cells; PD assay in A549 cells) | pIC50 Assay 1 (PRMT5-MEP50 enzyme)
Nc1ncnc2c1ncn2[C@@H]1O[C@H](CN2CCC3(CCCN3)C2)[C@@H](O)[C@H]1O (stereo partly shown) [Compound 78] | 2820 nM | > 10000 nM | – | –
Nc1ncnc2c1ccn2[C@@H]1O[C@H](CN2CCCC23CCN(Cc2nc4ccccc4[nH]2)CC3)[C@@H](O)[C@H]1O [Compound 177] | 191 nM | 457 nM | – | –
Nc1ncnc2c1ccn2[C@@H]1O[C@H](CN2CCCC23CCN(CC(F)F)CC3)[C@@H](O)[C@H]1O [Compound 196] | 1150 nM | 3240 nM | – | –
CC(C)C(=O)O[C@@H]1[C@H](OC(=O)C(C)C)[C@@H](CN2CC(F)(F)CC23CCN(C)CC3)O[C@H]1c1ccc2c(N)ncnn12 [Compound 105] | > 10000 nM | 6610 nM | – | –
CN1CCC2(CCCN2C[C@H]2O[C@@H](n3cc(I)c4c(N)ncnc43)[C@H](O)[C@@H]2O)CC1 [Compound 180] | 10.2 nM | 269 nM | – | –
Nc1ncnc2c1ccn2[C@@H]1O[C@H](CN2CC(C(F)(F)F)CC23CCNCC3)[C@@H](O)[C@H]1O (stereo partly shown) [Compound 41] | 5750 nM | > 10000 nM | – | –
Nc1ncnc2c1ccn2[C@@H]1O[C@H](CN2CCCC3(CCCCN3)C2)[C@@H](O)[C@H]1O (single isomer, unassigned) [Compound 35] | 105 nM | ~6170 nM | – | –
Nc1ncnc2c1ccn2[C@@H]1O[C@H](CN2CCC23CCNCC3)[C@@H](O)[C@H]1O [Compound 112] | 33.1 nM | ~1780 nM | – | –
Nc1ncnc2c1ccn2[C@@H]1O[C@H](CN2CCCC3(COCCN3)C2)[C@@H](O)[C@H]1O (stereo partly shown) [Compound 37] | 170 nM | 5370 nM | – | –
Nc1ncnc2c1ncn2[C@@H]1O[C@H](CN2CC3(CCNC3)C2)[C@@H](O)[C@H]1O [Compound 84] | 77600 nM | > 10000 nM | – | –
CN1CC2(CCCN(C[C@H]3O[C@@H](n4ccc5c(N)ncnc54)[C@H](O)[C@@H]3O)C2)C1 [Compound 74] | 37.2 nM and 35.5 nM | 372 nM | ~6.51 | –
CCN1CCC2(CC1)CC(F)(F)CN2C[C@H]1O[C@@H](n2ccc3c(N)ncnc32)[C@H](O)[C@@H]1O [Compound 182] | 15.5 nM | 501 nM | – | –
Nc1ncnc2c1ccn2[C@@H]1C[C@H](CN2CC(F)(F)CC23CCNCC3)[C@@H](O)[C@H]1O [Compound 126] | 17.4 nM | 44.7 nM | – | –
Nc1ncnc2c1ccn2[C@@H]1O[C@H](CN2CCCC23CCN(CCC(F)(F)F)CC3)[C@@H](O)[C@H]1O [Compound 169] | 275 nM | 603 nM | – | –
CN1CCCC12CN(C[C@H]1O[C@@H](n3cnc4c(N)ncnc43)[C@H](O)[C@@H]1O)C2 [Compound 7] | 66100 nM | > 10000 nM | – | –
N#CCCN1CCC2(CCCN2C[C@H]2O[C@@H](n3ccc4c(N)ncnc43)[C@H](O)[C@@H]2O)CC1 [Compound 193] | 186 nM | 468 nM | – | –
Nc1ncnn2c([C@@H]3O[C@H](CN4CCCC45CCN(CCc4ccc(F)cc4)CC5)[C@@H](O)[C@H]3O)ccc12 [Compound 139] | 3240 nM | 1660 nM | – | –
CN1CC2(CCCN2C[C@H]2O[C@@H](n3cnc4c(N)ncnc43)[C@H](O)[C@@H]2O)C1 [Compound 2] | 776 nM | > 10000 nM | – | –
CN1CC2(CCCN(C[C@H]3O[C@@H](n4cnc5c(N)ncnc54)[C@H](O)[C@@H]3O)C2)C1 [Compound 8] | 155 nM | 1510 nM | – | –
Nc1ncnc2c1ncn2[C@@H]1O[C@H](CN2CCCCC23CNC3)[C@@H](O)[C@H]1O [Compound 80] | 3310 nM | > 10000 nM | – | –
CN1CCC2(CCCN2C[C@H]2O[C@@H](n3cnc4cncnc43)[C@H](O)[C@@H]2O)CC1 [Compound 191] | – | > 10000 nM | – | 5.04
Nc1ncnn2c([C@@H]3O[C@H](CN4CC(F)(F)CC45CCN(CC(F)(F)F)CC5)[C@@H](O)[C@H]3O)ccc12 [Compound 145] | > 10000 nM | > 10000 nM | – | –
CN1CCC2(CC1)CC(F)(F)CN2C[C@H]1O[C@@H](c2ccc3c(N)ncnn23)[C@H](O)[C@@H]1O [Compound 147] | 186 nM | 603 nM | – | –
Nc1ncnc2c1ncn2[C@@H]1O[C@H](CN2CCC23CCNCC3)[C@@H](O)[C@H]1O [Compound 81] | 355 nM | 8130 nM | – | –
CC(=O)O[C@H]1[C@@H](O)[C@H](n2ccc3c(N)ncnc32)O[C@@H]1CN1CCCC12CCN(C)CC2 [Compound 99] | 174 nM | 204 nM | – | –
CN1CCC2(CCCN2C[C@H]2O[C@@H](n3ccc4c(N)nccc43)[C@H](O)[C@@H]2O)CC1 [Compound 66] | 603 nM | 6760 nM | – | –
Nc1ncnn2c([C@@H]3O[C@H](CN4C(C(F)(F)F)CCC45CCNCC5)[C@@H](O)[C@H]3O)ccc12 (stereo partly shown) [Compound 137] | 1150 nM | > 10000 nM | – | –

SMILES | IC50 (PRMT5-MEP50 enzyme) | IC50 (A549 cells) | pIC50 Assay 2 (A549 cells; PD assay in A549 cells) | pIC50 Assay 1 (PRMT5-MEP50 enzyme)
NC[C@H]1COCCN1C[C@H]1O[C@@H](n2ccc3c(N)ncnc32)[C@H](O)[C@@H]1O [Compound 49] | 120 nM | ~5130 nM | – | –
CN(C)CC[C@@H]1CCCN1C[C@H]1O[C@@H](c2ccc3c(N)ncnn23)[C@H](O)[C@@H]1O [Compound 148] | 1260 nM | > 10000 nM | – | –
Nc1ncnc2c1ncn2[C@@H]1O[C@H](CN2CCC23CNC3)[C@@H](O)[C@H]1O [Compound 89] | 2750 nM | > 10000 nM | – | –
CN1CCCC2(C1)CN(C[C@H]1O[C@@H](n3cnc4c(N)ncnc43)[C@H](O)[C@@H]1O)C2 [Compound 12] | 67600 nM | > 10000 nM | – | –
CN1CCC2(CC1)CCN2C[C@H]1O[C@@H](n2cnc3c(N)ncnc32)[C@H](O)[C@@H]1O [Compound 9] | 776 nM | > 10000 nM | – | –
CN1CCC2(CCCN2C[C@H]2O[C@@H](n3cnc4c(N)ncnc43)[C@H](O)[C@@H]2O)C1 (stereo partly shown) [Compound 13] | 955 nM | > 10000 nM | – | –
C[C@@]1(O)[C@H](O)[C@@H](CN2CCCC23CCNCC3)O[C@H]1n1cnc2c(N)ncnc21 [Compound 27] | 1350 nM | > 10000 nM | – | –
Nc1ncnc2c1ncn2[C@@H]1O[C@H](CN2CCC3(CCNCC3)C2)[C@@H](O)[C@H]1O [Compound 75] | 39800 nM | > 10000 nM | – | –
Nc1ncnc2c1ccn2[C@@H]1O[C@H](CN2CC(F)(F)CC23CCN(CCC2CC2)CC3)[C@@H](O)[C@H]1O [Compound 185] | 25.1 nM | 589 nM | – | –
Nc1ncnc2c1ncn2[C@@H]1O[C@H](CN2CCC3(CNC3)C2)[C@@H](O)[C@H]1O [Compound 86] | 417 nM | > 10000 nM | – | –
Nc1ncnc2c1ccn2[C@@H]1O[C@H](CN2CCCC23CCCNCC3)[C@@H](O)[C@H]1O (single isomer, unassigned) [Compound 117] | 33.9 nM | 501 nM | – | –
NC[C@@H]1COCCN1C[C@H]1O[C@@H](n2ccc3c(N)ncnc32)[C@H](O)[C@@H]1O [Compound 72] | 53.7 nM | ~3550 nM | – | –
NC[C@@H]1CC(F)(F)CCN1C[C@H]1O[C@@H](c2ccc3c(N)ncnn23)[C@H](O)[C@@H]1O [Compound 160] | 2690 nM | > 20000 nM | – | –
CN1CCC12CCN(C[C@H]1O[C@@H](n3cnc4c(N)ncnc43)[C@H](O)[C@@H]1O)C2 (stereo partly shown) [Compound 4] | 2290 nM | > 10000 nM | – | –
O[C@@H]1[C@H](O)[C@@H](CN2CC(F)(F)CC23CCN(C2CC2)CC3)O[C@H]1n1ccc2c(Cl)ncnc21 [Compound 67] | 1860 nM | ~6170 nM | – | –
O[C@@H]1[C@H](O)[C@@H](CN2CCCC23CCNCC3)O[C@H]1n1cnc2cncnc21 [Compound 62] | 501 nM | > 10000 nM | – | –
Nc1ncnn2c([C@@H]3O[C@H](CN4CCCC45CCNCC5)[C@@H](O)[C@H]3O)ccc12 [Compound 133] | 28.8 nM | ~1050 nM | – | –
CN1CCC2(CC1)CN(C[C@H]1O[C@@H](n3cnc4c(N)ncnc43)[C@H](O)[C@@H]1O)C2 [Compound 90] | 70800 nM | > 10000 nM | – | –
Nc1ncnc2c1ccn2[C@@H]1C[C@H](CN2CCCC23CCNCC3)[C@@H](O)[C@H]1O [Compound 124] | 27.5 nM | 447 nM | – | –
CNC(=O)CCN1CCC2(CCCN2C[C@H]2O[C@@H](n3ccc4c(N)ncnc43)[C@H](O)[C@@H]2O)CC1 [Compound 195] | 537 nM | > 10000 nM | – | –
CN1CCC2(CC1)CC(F)(F)CN2C[C@H]1O[C@@H](n2ccc3c(N)ncnc32)[C@H](O)[C@@H]1O [Compound 181] | 19.5 nM | 66.1 nM | – | –
Nc1ncnc2c1ccn2[C@@H]1O[C@H](CN2CCCC3(CCCN3)C2)[C@@H](O)[C@H]1O (single isomer, unassigned) [Compound 39] | 67.6 nM | 11200 nM | – | –
NCCC1CN(C[C@H]2O[C@@H](n3ccc4c(N)ncnc43)[C@H](O)[C@@H]2O)CCO1 (stereo partly shown) [Compound 47] | 692 nM | > 10000 nM | – | –
Nc1ncnc2c1ccn2[C@@H]1O[C@H](CN2CCOCC23CCNCC3)[C@@H](O)[C@H]1O [Compound 108] | 25.7 nM | 204 nM | – | –
CN1CC2(CCCCN2C[C@H]2O[C@@H](n3cnc4c(N)ncnc43)[C@H](O)[C@@H]2O)C1 [Compound 11] | 12300 nM | > 10000 nM | – | –
CN(C)C[C@@H]1COCCN1C[C@H]1O[C@@H](c2ccc3c(N)ncnn23)[C@H](O)[C@@H]1O [Compound 129] | > 10000 nM | > 20000 nM | – | –
CCN1CCC2(CC1)CC(F)(F)CN2C[C@H]1O[C@@H](c2ccc3c(N)ncnn23)[C@H](O)[C@@H]1O [Compound 146] | 3980 nM | 4680 nM | – | –
